From patent US20210283215A1, “BACTERIOTHERAPY AGAINST PROPRIONIBACTERIUM ACNES FOR THE TREATMENT OF ACNE” (The Regents of the University of California, priority 2018, published 2021)

The substances below were run on C. acnes C2 (assay: Inhibition of C. acnes C2 growth, 72 h culture). Conditions: C. acnes C2, 72 h culture.
Type: cell-based
“PSMβ1: phenol soluble modulin beta peptide of S. capitis E12, SEQ ID NO: 9437, individually synthesized (MTKLAEAIANTVKAGQDHDWAKLGTSIVGIAENGIGLLGKVFGF; listed as Staphylococcus capitis)” was tested, and the “concentration inhibiting growth of C. acnes” value was 62 µg/mL.
With “PSMβ4: phenol soluble modulin beta peptide of S. capitis E12, SEQ ID NO: 9443, individually synthesized (MTKLAEAIANAVKAGQDQDWAKLGTSIVGIAENGISLLGKVFGF; listed as Staphylococcus capitis)” the “concentration inhibiting growth of C. acnes” value was 125 µg/mL.
In the case of “PSMβ6: phenol soluble modulin beta peptide of S. capitis E12, SEQ ID NO: 9447, individually synthesized (MEKLFDAIRNTVDAGINQDWTKLGTSIVDIVDNGVKVISKFIGA; listed as Staphylococcus capitis)”, the “concentration inhibiting growth of C. acnes” value is reported as 62 µg/mL.
